Experimental data: patent US9221833B2, “Antiviral compounds” (GILEAD PHARMASSET LLC, priority 2011, dated 2015)
Like-named read-outs stand apart in the source and are kept apart here.

What was measured:
Type in all cases: cell-based, HCV
[1] = tested on: genotype 1b Con1 replicon; test: microbe, parasite or virus in culture
Procedure: (§1) Evaluation of cell-based anti-HCV activity: Antiviral potency (EC50) was determined using a Renilla luciferase (RLuc)-based HCV replicon reporter assay. […] To perform the assay for genotype 2a (with M31 present in NS5A) or 2b, NS5A chimeric genotype 2a JFH-1 replicons that encodes a RLuc-Neo reporter and either genotype 2a J6 strain NS5A gene or genotype 2b MD2b-1 strain NS5A gene (both with M31 present) respectively, were either transiently transfected (t) into Huh-Lunet cells or were established as stably replicating replicon cells (s) is provided. Either cells were dispensed into 384-well plates for EC50 assays. To perform the assay for genotype 3 and 4, NS5A chimeric genotype 1b Con1 replicons that encodes a Pi-RLuc reporter and either genotype 3a S52 strain NS5A gene or genotype 4a ED43 strain NS5A gene respectively, were transiently transfected (t) into Huh-Lunet cells, which were subsequently dispensed into 384-well plates. Compounds were dissolved in DMSO at a concentration of 10 mM and diluted in DMSO either manually or using an automated pipeting instrument. Serially 3-fold diluted compounds were either manually mixed with cell culture media and added to the seeded cells or directly added to the cells using an automated instrument. […] 72 hours later, cells were lysed and Renilla luciferase activity quantified as recommended by the manufacturer (Promega-Madison, Wis.). Non-linear regression was performed to calculate EC50 values.

[2] = tested on: genotype 2a JFH-1 replicon (L31 present in NS5A); test: microbe, parasite or virus in culture; details: genotype 2a JFH replicon, read-out: 2a JFH
Procedure: as §1

[3] = tested on: genotype 2b MD2b-1 strain NS5A gene (M31 present); test: microbe, parasite or virus in culture
Procedure: as §1

[4] = tested on: genotype 2a J6 strain NS5A gene (M31 present); test: Replicon assay, NS5A chimeric 2a JFH-1 replicon with 2a J6 NS5A, transient (t) or stable (s), Huh-Lunet cells
Procedure: as §1

[5] = tested on: genotype 3a S52 strain NS5A gene; test: Replicon assay, NS5A chimeric 1b Con1 replicon with 3a NS5A, transiently transfected Huh-Lunet cells; details: genotype 3a, read-out: 3a
Procedure: as §1

[6] = tested on: genotype 4a ED43 strain NS5A gene; test: Replicon assay, NS5A chimeric 1b Con1 replicon with 4a NS5A, transiently transfected Huh-Lunet cells
Procedure: as §1, with “[…],” for “were transiently transfected (t) into Huh-Lunet cells,”

Q30R in genotype 1a NS5A = test: Antiviral potency against resistance mutant, 1a Pi-Rluc replicon in Huh-7-derived cured-51 cells; details: genotype 1a Q30R resistance mutant, read-out: 1a Q30R
Procedure: as §1
To determine the antiviral potency (EC50) against resistance mutants, resistance mutations, including M28T, Q30R, Q30H, L31M, and Y93C in genotype 1a NS5A and Y93H in genotype 1b NS5A, were introduced individually into either 1a Pi-Rluc or 1b Pi-Rluc replicons by site directed mutagenesis. Replicon RNA of each resistant mutant was transiently transfected into Huh-7-derived cured-51 cells and antiviral potency was determined on these transfected cells as described above.

[7] = genotype 2b, EC50 range class, transiently transfected cells (t), if unavailable stably replicating cells (s), read-out: 2b
[8] = stably replicating cells (s), read-out: 2b (s)
[9] = transiently transfected cells (t), read-out: 2b (t)
[10] = genotype 2a J6, EC50 range class, transiently transfected cells (t), if unavailable stably replicating cells (s), read-out: 2a J6
[11] = stably replicating cells (s), read-out: 2a J6 (s)
[12] = transiently transfected cells (t), read-out: 2a J6 (t)
[13] = genotype 4a, EC50 range class, transiently transfected cells (t), if unavailable stably replicating cells (s), read-out: 4a
[14] = stably replicating cells (s), read-out: 4a (s)
[15] = transiently transfected cells (t), read-out: 4a (t)
[16] = Hepatitis C virus, read-out: 1b (nM)

Molecule	EC50 ([1]; read-out: 1b) [nM]	EC50 ([2]; EC50 range class) [nM]	EC50 [2] [nM]	EC50 [3, 7] [nM]	EC50 [3, 8] [nM]	EC50 [3, 9] [nM]	EC50 [4, 10] [nM]	EC50 [4, 11] [nM]	EC50 [4, 12] [nM]	EC50 ([5]; EC50 range class) [nM]	EC50 [5] [nM]	EC50 [6, 13] [nM]	EC50 [6, 14] [nM]	EC50 [6, 15] [nM]	EC50 (Q30R in genotype 1a NS5A; EC50 range class) [nM]	EC50 (Q30R in genotype 1a NS5A) [nM]	EC50 [1, 16] [nM]
COC(=O)N[C@H](C(=O)N1CCC[C@H]1c1ncc(-c2ccc3c(c2)COc2cc4c(cc2-3)CCc2[nH]c([C@@H]3CCCN3C(=O)[C@@H](NC(=O)OC)C(C)C)nc2-4)[nH]1)C(C)C [Example ME]	0.049	< 1	0.012	< 1	0.701	0.198	1 to 4.99	16.1	3.43	< 1	0.015	< 1	0.029	0.016	1 to 44	2.51	
COC[C@@H]1C[C@@H](c2nc3ccc4cc5c(cc4c3[nH]2)OCc2cc(-c3cnc([C@@H]4CCCN4C(=O)[C@@H](NC(=O)OC)C(C)C)[nH]3)ccc2-5)N(C(=O)[C@H](NC(=O)OC)c2ccccc2)C1 [Example MQ, methyl{(1R)-2-[(2S,4R)-2-(9-{2-[(2S)-1-{(2S)-2-[(methoxycarbonyl)amino]-3-methylbutanoyl}pyrrolidin-2-yl)-1H-imidazol-5-yl]-1,11-dihydroisochromeno[4′,3′:6,7]naphtho[1,2-d]imidazol-2-yl}-4-(methoxymethyl)pyrrolidin-1-yl]-2-oxo-phenylethyl}carbamate]	0.011	< 1	0.004	< 1	0.023	0.009	< 1	0.095	0.017	< 1	0.016	< 1			< 1	0.023	
COC[C@H]1C[C@@H](c2nc3c([nH]2)-c2cc4c(cc2CC3)-c2ccc(-c3cnc([C@@H]5CCCN5C(=O)[C@@H](NC(=O)OC)C(C)C)[nH]3)cc2CO4)N(C(=O)[C@H](NC(=O)OC)c2ccccc2)C1 [Example MR, methyl{(1R)-2-[(2S,4S)-2-(9-{2-[(2S)-1-{(2S)-2-[(methoxycarbonyl)amino]-3-methylbutanoyl}pyrrolidin-2-yl)-1H-imidazol-5-yl]-1,11-dihydroisochromeno[4′,3′:6,7]-4,5-dihydro-naphtho[1,2-d]imidazol-2-yl}-(methoxymethyl)pyrrolidin-1-yl]-2-oxo-1-phenylethyl}carbamate]	0.041	< 1	0.017	< 1	0.053	0.039	< 1	0.176	0.079	< 1	0.078	< 1		0.045	< 1	0.128	
COC[C@H]1C[C@@H](c2nc3ccc4cc5c(cc4c3[nH]2)OCc2cc(-c3ccc4nc([C@@H]6CCCN6C(=O)[C@@H](NC(=O)OC)C(C)C)[nH]c4c3)ccc2-5)N(C(=O)[C@H](NC(=O)OC)c2ccccc2)C1 [Example MS]	0.008	< 1	0.005	> 5	9.56		> 5	15.6				< 1	0.02	0.014			
COC[C@H]1C[C@@H](c2ncc(-c3ccc4c(c3)COc3cc5c(ccc6nc([C@@H]7C[C@H]8C[C@H]8N7C(=O)[C@H](NC(=O)OC)c7ccccc7)[nH]c65)cc3-4)[nH]2)N(C(=O)[C@@H](NC(=O)OC)C(C)C)C1 [Example MV]	0.014	< 1	0.004	< 1	0.041	0.034	< 1		0.047	< 1	0.011	< 1	0.011		< 1	0.012	
COC(=O)N[C@H](C(=O)N1CCC[C@H]1c1ncc(-c2ccc3c(c2)COc2cc4c(ccc5nc([C@@H]6C[C@H](C)CN6C(=O)[C@H](NC(=O)OC)c6ccccc6)[nH]c54)cc2-3)[nH]1)C(C)C [Example MY, Methyl {2-[2-{9-[2-(1-{2-[(methoxycarbonyl)amino]-3-methylbutanoyl}pyrrolidin-2-yl)-1H-imidazol-5-yl]-1,11-dihydroisochromeno[4′,3′:6,7]naphtho[1,2-d]imidazol-2-yl}-4-(methyl)pyrrolidin-1-yl]-2-oxo-1-phenylethyl}carbamate]																	0.015
COC[C@H]1C[C@@H](c2nc3ccc4cc5c(cc4c3[nH]2)OCc2cc(-c3cnc([C@@H]4C[C@H](C)CN4C(=O)[C@H](NC(=O)OC)c4ccccc4)[nH]3)ccc2-5)N(C(=O)[C@@H](NC(=O)OC)C(C)C)C1 [Example PF, methyl {1-[2-{9-[2-(1-{[(methoxycarbonyl)amino](phenyl)acetyl}-4-methylpyrrolidin-2-yl)-1H-imidazol-5-yl]-1,11-dihydroisochromeno[4′,3′:6,7]naphtho[1,2-d]imidazol-2-yl}-4-(methoxymethyl)pyrrolidin-1-yl]-3-methyl-1-oxobutan-2-yl}carbamate]																	0.044
Methyl {(2S)-1-[(2S,5S)-2-(5-{2-[(2S,4S)-1-{(2S)-2-[(methoxycarbonyl)amino]-3-methylbutanoyl}-4-methylpyrrolidin-2-yl]-1,11-dihydroisochromeno[4′,3′:6,7]naphtho[1,2-d]imidazol-9-yl}-1H-imidazol-2-yl)-4-methylpyrrolidin-1-yl]-3-methyl-1-oxobutan-2-yl}carbamate [Example ND]	0.024	< 1	0.014	< 1	1.32	0.27	< 1	2.34	0.314	< 1	0.035	< 1	0.044	0.031	< 1	0.057	
dimethyl (2S,2′S)-1,1′-((2 S,2′S)-2,2′l-pyrrolidin-2-yl)-5H-naphtho[c,g]chromeno[8,9-d]imidazol-9-yl)-1H-imidazol-2-yl)pyrrolidin-1-yl))bis(3-methyl-1-oxobutane-2,1-diyl)dicarbamate [Example MC]	0.017	< 1	0.004	< 1	0.375	0.162	1 to 4.99	3.52	1.16	< 1	0.004	< 1	0.028	0.008	< 1	0.99	
